Laboratory results from patent US9150543B2, “Substituted indolyl alkyl amino derivatives as inhibitors of histone deacetylase” (Janssen Pharmaceutica N. V., priority 2004, dated 2015).
In brackets after ≈: the same amount, converted by molar mass.

Tests used:
[1] = molecular target: histone deacetylase (HeLa nuclear extracts); test: In vitro assay for inhibition of histone deacetylase with fluorescent-labelled substrate (C.1.b); format: biochemical; conditions: Fluor de Lys substrate
Protocol: The HDAC Fluorescent Activity Assay/Drug Discovery Kit of Biomol (cat.No: AK-500-0001) was used. The HDAC Fluorescent Activity Assay is based on the Fluor de Lys (Fluorogenic Histone deAcetylase Lysyl) substrate and developer combination. The Fluor de Lys substrate, comprises an acetylated lysine side chain. Deacetylation of the substrate sensitizes the substrate so that, in the second step, treatment with the Fluor de Lys developer produces a fluorophore.
After 30 min, 1 volume of the developer was added. […] For each experiment, controls (containing HeLa nuclear extract and buffer), a blank incubation (containing buffer but no HeLa nuclear extract) and samples (containing compound dissolved in DMSO and further diluted in buffer and HeLa nuclear extract) were run in parallel. In first instance, compounds were tested at a concentration of 10^−5M. […] All sample were tested 4 times. In each test the blank value was subtracted from both the control and the sample values. The control sample represented 100% of substrate deactylation. For each sample the fluorescence was expressed as a percentage of the mean value of the controls. […] Herein the effects of test compounds are expressed as pIC50 (the negative log value of the IC50-value) (see Table F-3).

[2] = tested on: A2780 ovarian carcinoma cells; test: Antiproliferative activity on A2780 cells, MTT (C.2); format: cell-based; conditions: Homo sapiens, 96 h, four days of incubation, read-out: Cellular activity pIC50 C.2 (converted)
Protocol: All compounds tested were dissolved in DMSO and further dilutions were made in culture medium. Final DMSO concentrations never exceeded 0.1% (v/v) in cell proliferation assays. Controls contained A2780 cells and DMSO without compound and blanks contained DMSO but no cells. MTT was dissolved at 5 mg/ml in PBS. A glycine buffer comprised of 0.1 M glycine and 0.1 M NaCl buffered to pH 10.5 with NaOH (1N) was prepared (all reagents were from Merck).
The human A2780 ovarian carcinoma cells (a kind gift from Dr. T. C. Hamilton [Fox Chase Cancer Centre, Pennsylvania, USA]) were cultured in RPMI 1640 medium supplemented with 2 mM L-glutamine, 50 μg/ml gentamicin and 10% fetal calf serum. Cells were routinely kept as monolayer cultures at 37° C. in a humidified 5% CO2 atmosphere. Cells were passaged once a week using a trypsin/EDTA solution at a split ratio of 1:40. All media and supplements were obtained from Life Technologies. Cells were free of mycoplasma contamination as determined using the Gen-Probe Mycoplasma Tissue Culture kit (supplier: BioMerieux).
Cells were seeded in NUNC™ 96-well culture plates (Supplier: Life Technologies) and allowed to adhere to the plastic overnight. Densities used for plating were 1500 cells per well in a total volume of 200 μl medium. After cell adhesion to the plates, medium was changed and drugs and/or solvents were added to a final volume of 200 μl. Following four days of incubation, medium was replaced by 200 μl fresh medium and cell density and viability was assessed using an MTT-based assay. To each well, 25 μl MTT solution was added and the cells were further incubated for 2 hours at 37° C. The medium was then carefully aspirated and the blue MTT-formazan product was solubilized by addition of 25 μl glycine buffer followed by 100 μl of DMSO. […] Within an experiment, the results for each experimental condition are the mean of 3 replicate wells. For initial screening purposes, compounds were tested at a single fixed concentration of 10^−6 M. For active compounds, the experiments were repeated to establish full concentration-response curves. For each experiment, controls (containing no drug) and a blank incubation (containing no cells or drugs) were run in parallel. The blank value was subtracted from all control and sample values. For each sample, the mean value for cell growth (in absorbance units) was expressed as a percentage of the mean value for cell growth of the control. […] Herein the effects of test compounds are expressed as pIC50 (the negative log value of the IC50-value)(see Table F-3).

[3] = Solubility/stability at different pH's, chemiluminescent nitrogen detector (C.3.b); format: physicochemical; conditions: aqueous buffer; pH = 2.3
Text: In a second method the solubility of a compound at different pH's can be measured with the use of a Chemiluminescent Nitrogen Detector (see example C.3.b).
The solubility of a compound, at different pH's, can also be measured with the use of a chemiluminescent nitrogen detector. (see Table F-3).

Row | SMILES | Enzymatic activity pIC50 C.1.b [1] | IC50 [2] | melting point | solubility [3]
1 | O=C(NO)c1cnc(N2CCC(CNCc3c[nH]c4ccc(Cl)cc34)CC2)nc1 [Compound 2] | 8.4 | 31.6 nM | 205 °C | 
2 | Cn1cc(CNCC2CCN(c3ncc(C(=O)NO)cn3)CC2)c2c(F)cccc21 [Compound 39] | 9.0 | 31.6 nM |  | 2000 µg/mL (≈ 4.85 mM)
3 | Cn1ccc2cc(CNCC3CCN(c4ncc(C(=O)NO)cn4)CC3)ccc21 [Compound 44] | 8.2 | 39.8 nM |  | 1800 µg/mL (≈ 4.56 mM)
4 | COCCn1cc(CNCC2CCN(c3ncc(C(=O)NO)cn3)CC2)c2ccccc21 [Compound 47] | 8.8 | 10 nM |  | 4000 µg/mL (≈ 9.12 mM)
5 | Cn1ccc2c(CNCC3CCN(c4ncc(C(=O)NO)cn4)CC3)cccc21 [Compound 49] | 8.7 | 31.6 nM |  | 3300 µg/mL (≈ 8.37 mM)
6 | Cn1cc(CNCC2CCN(c3ncc(C(=O)NO)cn3)CC2)c2cc(C#N)ccc21 [Compound 55] | 10.1 | 15.8 nM |  | 2000 µg/mL (≈ 4.77 mM)
7 | CCN(CCc1cn(C)c2ccc(Cl)cc12)CC1CCN(c2ncc(C(=O)NO)cn2)CC1 [Compound 65] | >9.0 | 31.6 nM |  | 1600 µg/mL (≈ 3.4 mM)
8 | CCN(CCc1cn(C)c2ccccc12)CC1CCN(c2ncc(C(=O)NO)cn2)CC1 [Compound 66] | >9.0 | 39.8 nM |  | 1700 µg/mL (≈ 3.89 mM)
9 | CCN(Cc1cn(C)c2ccccc12)CC1CCN(c2ncc(C(=O)NO)cn2)CC1 [Compound 68] | >9.0 | 63.1 nM |  | 2500 µg/mL (≈ 5.92 mM)

Next, values leading:

Row | Enzymatic activity pIC50 C.1.b [1] | IC50 [2] | melting point | solubility [3] | SMILES
10 | 8.0 | 79.4 nM | 174 °C |  | Cn1cc(CCNCC2CCN(c3ncc(C(=O)NO)cn3)CC2)c2ccccc21 [Compound 19]
11 | 9.1 | 63.1 nM | 183 °C |  | Cn1cc(CCN(CC2CCN(c3ncc(C(=O)NO)cn3)CC2)S(C)(=O)=O)c2cc(Cl)ccc21 [Compound 22]
12 | 8.4 | 31.6 nM | 182 °C |  | CCn1c(C)c(CCNC2CCN(c3ncc(C(=O)NO)cn3)CC2)c2ccccc21 [Compound 23]
13 | 8.0 | 3.98 nM |  | 1500 µg/mL (≈ 3.5 mM) | Cn1cc(CNCC2CCN(c3ncc(C(=O)NO)cn3)CC2)c2cc(Cl)ccc21 [Compound 32]
14 | 10.0 | 31.6 nM |  | 1600 µg/mL (≈ 3.77 mM) | COc1ccc2c(c1)c(CNCC1CCN(c3ncc(C(=O)NO)cn3)CC1)cn2C [Compound 33]
15 | 8.7 | 2.51 nM |  | 2500 µg/mL (≈ 6.12 mM) | Cc1ccc2c(c1)c(CNCC1CCN(c3ncc(C(=O)NO)cn3)CC1)cn2C [Compound 36]
16 | 8.5 | 15.8 nM |  | 2100 µg/mL (≈ 4.81 mM) | CCCCn1cc(CNCC2CCN(c3ncc(C(=O)NO)cn3)CC2)c2ccccc21 [Compound 43]
17 | 9.0 | 200 nM |  | 1700 µg/mL (≈ 3.64 mM) | CCCn1cc(CNCC2CCN(c3ncc(C(=O)NO)cn3)CC2)c2cc3c(cc21)OCO3 [Compound 45]
18 | 8.6 | 25.1 nM |  | 2400 µg/mL (≈ 6.08 mM) | Cn1ccc2ccc(CNCC3CCN(c4ncc(C(=O)NO)cn4)CC3)cc21 [Compound 50]
19 | 10.2 | 25.1 nM |  | 2800 µg/mL (≈ 7.1 mM) | Cn1ccc2cccc(CNCC3CCN(c4ncc(C(=O)NO)cn4)CC3)c21 [Compound 57]
20 | 8.7 | 126 nM |  | 3100 µg/mL (≈ 6.82 mM) | COc1cc2c(CNCC3CCN(c4ncc(C(=O)NO)cn4)CC3)cn(C)c2cc1OC [Compound 60]
21 | 8.3 | 31.6 nM |  | 1900 µg/mL (≈ 4.65 mM) | CN(Cc1cn(C)c2ccccc12)CC1CCN(c2ncc(C(=O)NO)cn2)CC1 [Compound 67]
22 | 8.4 | 7.94 nM |  | 2700 µg/mL (≈ 6.61 mM) | Cc1ccc2c(CNCC3CCN(c4ncc(C(=O)NO)cn4)CC3)cn(C)c2c1 [Compound 79]
